Measured values taken from US20240261294A1, “METHOD FOR TREATING IDH INHIBITOR-RESISTANT SUBJECTS” (Eli Lilly and Company, priority 2021, published 2024).
Where a chain is given by its changes, count along the chain named. Like-named read-outs stand apart in the source and are kept apart here.

What was measured:
IDH2 R172W_P167R cis = target: T1, IDH2 R172W_P167R cis (Homo sapiens, UniProt P48735, P167R/R172W); assay: Inhibition of 2-HG production in IDH2 mutant U-87 MG cells; assay type: cell-based; settings: read-out: Relative IC50 (nM) Mean, inhibition of 2-HG production
T1 construct: expressed in transfected cells; host or cells: U-87 MG
T1 sequence (P48735 40-452 P167R/R172W): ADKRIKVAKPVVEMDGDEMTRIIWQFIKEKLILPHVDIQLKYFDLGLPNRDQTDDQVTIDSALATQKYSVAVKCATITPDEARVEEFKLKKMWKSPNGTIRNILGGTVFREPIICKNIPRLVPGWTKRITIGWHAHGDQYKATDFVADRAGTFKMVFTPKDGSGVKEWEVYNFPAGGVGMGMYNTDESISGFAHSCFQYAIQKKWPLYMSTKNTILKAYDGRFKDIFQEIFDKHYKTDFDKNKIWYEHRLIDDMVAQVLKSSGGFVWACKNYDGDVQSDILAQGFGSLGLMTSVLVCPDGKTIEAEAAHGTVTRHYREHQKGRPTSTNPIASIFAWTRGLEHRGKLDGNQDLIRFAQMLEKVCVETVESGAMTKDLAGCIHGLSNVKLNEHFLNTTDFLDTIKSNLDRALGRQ
Method: (§1) Compounds and Formulation. Compound A may be synthesized as described in WO/18/111707. Compound A is prepared as a 20 mM stock in 100% DMSO (dimethyl sulfoxide) (Sigma, D2438) and diluted serially in 100% DMSO to achieve the desired concentrations. DMSO preparations are further diluted with cell culture media prior to addition in the assay.
(§2) Cell lines. U-87 MG cells (ATCC, HTB-14) are cultured and assayed in MEM (Gibco, 11095) with 2 mM GlutaMAX (Gibco, 35050), 1 mM Pyruvate (Gibco, 11360), 0.1 mM NEAA ((Non-essential amino acid) Gibco, 11140) and 10% dialyzed FBS (Fetal bovine serum) (Gibco, 26400).
(§3) Cell-based inhibition assays. Cell-based assays are performed by measuring 2-HG in U-87 MG cells in which IDH2 mutations are expressed.
(§4) DNA constructs encoding IDH2 mutations are introduced into U-87 MG cells using transfection (Promega FuGENE HD, E2311) or lentiviral transduction, and the IDH2-mutant expressing cell lines are selected using blasticidin (5 μg/ml) or puromycin (1 μg/ml). Second site mutations (Q316E, I319M, P167R, and G260A) are evaluated in cis (same monomer as driver mutation within dimer) or in trans (opposite monomer from driver mutation in dimer). For compound treatments, 12,500 or 50,000 cells per well in culture medium (150 μl or 100 μl, respectively) are plated in 96 well cell culture plates (Falcon, 353377) 2 hrs prior to treatment. Cells are treated with serial dilutions of compound A in standard growth media. Plates are incubated in a mammalian cell culture incubator (humidified, 37° C., 5% CO2) for 16 or 72 hrs. Following the incubation period, the media is aspirated and cell extracts are prepared by addition of ice-cold 80% methanol/20% water (100 μL) containing liquid chromatography-mass spectrometry (LC-MS) internal standards (1 μM ^13C4 α-KG and ^13C5 2-HG) per well for ion pairing LC-MS method. 96-well sample plates are then sealed, shaken at 450 rpm for 10 min, and then placed at −20° C. and stored until LC-MS analysis.
(§5) LC-MS metabolite analysis of conditioned media and cell lysates. The effect of inhibitors on the concentrations of 2-HG are determined by LC-MS analysis of cell lysates using an ion-pairing method as described below.
(§6) Calibration curves are prepared by spiking 2-HG and α-KG into 80% methanol/20% water containing LC-MS internal standards (1 μM ^13C4 α-KG and 1 μM ^13C5 2-HG). The quantitation of 2-HG and α-KG is accomplished using an AB Sciex 6500 mass spectrometer with an Electrospray Ionization (ESI) probe and interfaced with an Ultra Performance Liquid Chromatography (UHPLC) system in the negative multiple-reaction monitoring (MRM) mode. The UHPLC system consists of an Agilent 1290 binary pump, thermostatted column compartment (TCC), and sampler. The injection volume is 1 μL for cell culture extracts. The extracts are chromatographically resolved using a Hypercarb column, 2.1×20 mm, […] Javelin HTS (Thermo Scientific, PN: 35005-022135). Mobile phase A is water/10 mM tributylamine/15 mM acetic acid. Mobile phase B is acetonitrile/20 mM tributylamine/30 mM acetic acid. The solvent flow rate is 1.0 mL/min. The isocratic condition is kept at 26% mobile phase B. The valve, sample loop, and needle are washed with 50% acetonitrile: 50% methanol for 20 seconds. The column temperature is kept at 55° C. Calibration curves are calculated by least-square linear regression with 1/x weighting. 2-HG and α-KG are quantified using standard curve and ratio of the peak area of analytes to internal standard. Data analysis is performed using MultiQuant 3.0 (AB Sciex). The raw data are exported to Microsoft Excel spreadsheets.
(§7) Determination of IC50 Curves. IC50 curves for each compound are obtained using four parameter data fitting analysis in GraphPad/Prism software.

IDH2 R140Q_Q316E cis = target: T2, IDH2 R140Q_Q316E cis (Homo sapiens, UniProt P48735, Q316E/R140Q); assay: as above; assay type: cell-based
T2 construct: expressed in transfected cells; host or cells: U-87 MG
T2 sequence (P48735 40-452 R140Q/Q316E): T1 sequence (P48735 40-452 P167R/R172W) with R101Q, R128P, W133R, Q277E
Method: as §1, §2, §3, §4, §5, §6, §7

## C=CC(=O)N1CCN([C@@H](CC2CC2)c2ccc([C@H](C)Nc3ncc4c(n3)N(CC)C(=O)OC4)cc2)CC1 [Compound A, 7-[[(1S)-1-[4-[(1S)-2-cyclopropyl-1-(4-prop-2-enoylpiperazin-1-yl)ethyl]phenyl]ethyl]amino]-1-ethyl-4H-pyrimido[4,5-d][1,3]oxazin-2-one]
IDH2 R172W_P167R cis; 16 hours incubation, 50K cells/well, 100 μl media/well
  IC50: 1280 nM
IDH2 R172W_P167R cis; 72 hours incubation, 12.5K cells/well
  IC50: 535 nM
IDH2 R140Q_Q316E cis; 16 hours incubation, 50K cells/well, 100 μl media/well, read-out: Relative IC50 (nM) Mean, inhibition of 2-HG production
  IC50: 16 nM
IDH2 R140Q_Q316E cis; 72 hours incubation, 12.5K cells/well, 150 μl media/well, read-out: IC50, inhibition of 2-HG production
  IC50: 22 nM
